Blank lines part the entries; values can stand above or below the compound they belong to.
How the values were obtained:
[1] = target: T1, A-DA lipid probe targets in Neuro2a cells (Mus musculus, UniProt P22437); assay: In situ competitive SILAC profiling with A-DA probe in Neuro2a cells; assay type: cell-based; settings: Neuro2a cells, A-DA 5 μM, drug 25 μM
T1 construct: endogenous in cells; host or cells: Neuro2a

[2] = system: membrane and soluble proteins of HEK293T cells; assay: Gel-based profiling of lipid probe labeling in HEK293T cells; assay type: cell-based, human; settings: probe 20 μM, 30 min, UV
Method: For gel-based analysis, after sonicating the membrane pellets in cold DPBS, protein concentrations of each fraction were determined using the BCA protein assay (Bio-Rad) and a microplate reader (Tecan, Infinite F500).
Proteomes were diluted to 1.0 mg/mL (total protein concentration) and 50 μL of each proteome was transferred to separate wells in a 96-well plate.
In some instances, within the arachidonoyl subset of probes, fatty acid- and fatty acid amide-based probes (AA-DA and AEA-DA, respectively) were synthesized and their potential were evaluated to bind and covalently modify (under UV-light exposure) proteins in human cells by gel-based profiling. For example, HEK293T cells were treated with probe (AA-DA or AEA-DA; 20 μM, 30 min), irradiated with UV light (10 min, 4° C.), lysed and the cell proteomes fractionated into membrane and soluble components by centrifugation prior to conjugation to a fluorescent reporter tag (Rh—N3) using CuAAC (FIG. 4A). […] In some instances, this was a consequence of rapid sequestration of this probe into membranes through its metabolic incorporation into phospho/neutral-lipids or into lipidated proteins. […] In some instances, the labeling profile of the AEA-DA probe reflected a limited capacity of the cell to metabolize this amidated probe, which undergoes enzyme-mediated hydrolysis prior to incorporation into other lipids or proteins.

[3] = system: PGF2α-EA formation in PMA-stimulated A549 cells; assay: Oxidative metabolism of AEA in A549 cells (prostamide formation); assay type: cell-based, human; settings: MJN228, KML110 5 and 25 μM, others 25 μM, AEA 20 μM
Method: The media from the PMA-stimulated cells was removed and cells were washed with DPBS (2×3 mL) before adding freshly prepared media solutions containing vehicle or compound (2 mL/plate). After incubating for 30 min at 37° C., a solution of BHT-stabilized AEA (60 μM AEA; 60 μM BHT) in the same media was added to the cells (1.0 mL/plate) and incubated for 1 h. The media from the cells was then transferred to glass vials containing MS internal standards [PGE2-EA-d4 (25 pmol)], centrifuged (1,500×g, 5 min) to remove detached cells and then loaded onto pre-equilibrated reversed phase SPE cartridges (Phenomenex, Strata-X 33 μm, 60 mg/3 mL). After washing cartridges with 5% MeOH/H2O (3 mL), prostamides were eluted with MeOH (1.0 mL) and the eluent was concentrated under a stream of N2. Concentrated samples were stored at −80° C. until the day of analysis when they were reconstituted in Mobile Phase A [100 μL, 30% CH3CN in H2O (0.1% AcOH, 5.0 mM NH4OAc)].
Media extracts were analyzed by LC/MS/MS with LC separation performed on a Kinetex reversed phase C18 column (50×4.6 mm, 2.6 μm particle size, 100Å). Mobile phase A was composed of 30% (v/v) CH3CN in H2O and Mobile phase B was composed of 50% (v/v) CH3CN in i-PrOH. Both mobile phases also contained 0.1% AcOH and NH4OAc (5 mM) to facilitate ionization and LC separation. […]
MS analysis of prostamides was performed on an Agilent 6460 Triple Quadrupole LC/MS System with operating conditions as follows: gas temperature (300° C.); gas flow (9 L·min^−1); nebulizer (45 psi); sheath gas temperature (300° C.); sheath gas flow (12 L·min^−1); positive and negative capillary voltage (3.5 kV). Analysis was achieved using multiple reaction monitoring with precursor to product ion transitions, optimized collision energies (CE) as listed below and prostamide quantification was achieved by normalized of analyte peaks relative to a deuterated prostamide internal standard (PGE2-EA-d4) to account for differences in extraction efficiency. […]

[4] = target: T2, A-DA lipid probe targets in Neuro2a cells (Mus musculus, UniProt P45377); assay: In situ competitive SILAC profiling with A-DA probe in Neuro2a cells; assay type: cell-based; settings: Neuro2A cells, A-DA 5 μM, drug 25 μM
T2 construct: endogenous in cells; host or cells: Neuro2a
T2 sequence (P45377 whole entry): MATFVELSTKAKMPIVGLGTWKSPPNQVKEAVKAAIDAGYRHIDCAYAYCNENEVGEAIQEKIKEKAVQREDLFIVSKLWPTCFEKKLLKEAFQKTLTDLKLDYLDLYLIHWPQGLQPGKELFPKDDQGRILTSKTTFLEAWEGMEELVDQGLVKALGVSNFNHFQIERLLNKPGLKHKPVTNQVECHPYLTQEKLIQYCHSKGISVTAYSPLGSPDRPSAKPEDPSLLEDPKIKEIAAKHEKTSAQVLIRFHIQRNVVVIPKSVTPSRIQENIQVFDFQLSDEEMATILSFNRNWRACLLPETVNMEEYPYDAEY

[5] = target: A-DA lipid probe targets in A549 cells (Homo sapiens, UniProt P07093); assay: In situ competitive SILAC profiling with A-DA probe in (PMA-stimulated) A549 cells; settings: protein SERPINE2 (P07093); A549 cells; competitor 25 μM
A-DA lipid probe targets in A549 cells (Homo sapiens, UniProt P07093), sequence (P07093 20-398): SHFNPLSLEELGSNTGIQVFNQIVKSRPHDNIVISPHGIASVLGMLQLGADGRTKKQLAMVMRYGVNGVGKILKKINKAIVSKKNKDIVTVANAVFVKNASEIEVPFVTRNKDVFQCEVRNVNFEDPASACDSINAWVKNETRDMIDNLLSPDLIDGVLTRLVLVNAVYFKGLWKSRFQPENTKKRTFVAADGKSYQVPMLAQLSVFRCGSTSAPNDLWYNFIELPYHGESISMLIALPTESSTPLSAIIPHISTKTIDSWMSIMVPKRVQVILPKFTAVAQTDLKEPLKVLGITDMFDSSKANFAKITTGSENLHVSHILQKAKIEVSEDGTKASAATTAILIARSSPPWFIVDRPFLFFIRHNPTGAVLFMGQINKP

[6] = target: T3, A-DA lipid probe targets in A549 cells (Homo sapiens, UniProt P35354); assay: as above; settings: PMA-stimulated A549 cells, A-DA 5 μM, drug 25 μM
T3 sequence (P35354 18-604): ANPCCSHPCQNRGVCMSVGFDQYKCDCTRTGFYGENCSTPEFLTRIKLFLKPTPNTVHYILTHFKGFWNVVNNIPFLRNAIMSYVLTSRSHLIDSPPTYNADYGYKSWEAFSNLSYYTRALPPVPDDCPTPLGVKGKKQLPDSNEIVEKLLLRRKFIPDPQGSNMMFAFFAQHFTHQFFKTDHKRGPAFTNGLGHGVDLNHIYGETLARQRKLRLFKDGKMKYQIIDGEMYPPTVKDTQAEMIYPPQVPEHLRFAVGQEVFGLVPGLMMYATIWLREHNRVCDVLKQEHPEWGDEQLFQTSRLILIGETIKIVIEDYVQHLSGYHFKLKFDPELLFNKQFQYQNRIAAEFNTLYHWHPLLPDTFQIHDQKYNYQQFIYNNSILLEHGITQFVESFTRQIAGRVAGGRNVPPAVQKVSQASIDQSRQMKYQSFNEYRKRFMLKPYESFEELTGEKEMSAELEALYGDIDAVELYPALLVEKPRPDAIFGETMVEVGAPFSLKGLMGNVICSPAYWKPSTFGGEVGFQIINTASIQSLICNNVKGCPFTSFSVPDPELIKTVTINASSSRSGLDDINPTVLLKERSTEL

[7] = target: T4, A-DA lipid probe targets in A549 cells (Homo sapiens, UniProt Q9UH99); assay: as above; settings: protein SUN2 (Q9UH99); A549 cells; competitor 25 μM
T4 sequence (Q9UH99 1-717): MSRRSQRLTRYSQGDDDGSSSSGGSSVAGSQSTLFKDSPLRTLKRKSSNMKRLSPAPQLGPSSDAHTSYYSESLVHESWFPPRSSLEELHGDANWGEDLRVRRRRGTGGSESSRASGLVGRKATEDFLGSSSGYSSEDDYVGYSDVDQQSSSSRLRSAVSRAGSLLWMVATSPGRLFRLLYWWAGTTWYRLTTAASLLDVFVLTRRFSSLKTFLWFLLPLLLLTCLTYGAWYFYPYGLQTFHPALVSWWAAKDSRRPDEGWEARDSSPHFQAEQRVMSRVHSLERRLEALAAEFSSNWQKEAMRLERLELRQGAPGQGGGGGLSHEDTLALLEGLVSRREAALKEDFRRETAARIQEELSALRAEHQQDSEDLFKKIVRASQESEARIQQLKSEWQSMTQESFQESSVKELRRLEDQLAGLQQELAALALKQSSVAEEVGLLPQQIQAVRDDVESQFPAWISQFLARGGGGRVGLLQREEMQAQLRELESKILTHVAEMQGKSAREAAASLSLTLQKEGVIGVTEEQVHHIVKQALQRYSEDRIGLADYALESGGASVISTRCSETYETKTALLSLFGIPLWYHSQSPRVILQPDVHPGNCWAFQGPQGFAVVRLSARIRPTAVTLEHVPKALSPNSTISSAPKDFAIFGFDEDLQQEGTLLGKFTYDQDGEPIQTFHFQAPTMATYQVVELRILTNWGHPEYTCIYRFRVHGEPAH

[8] = system: sterol-binding proteins in HeLa cells; assay: SILAC MS-based profiling of sterol-binding proteins in HeLa cells; assay type: cell-based, human; settings: probe-enriched proteins
Method: To facilitate delivery to cells, all sterols and steroids, including the sterol probes, were complexed in aqueous solution to mβCD (Sigma-Aldrich) for at least twelve hours before dilution in culture medium for labeling. The desired amount of sterol or steroid was added to a saturated aqueous mβCD (38 mM) solution to generate a concentrated stock, and agitated at room temperature overnight; solutions were filtered prior to use the following day. Aqueous stock solutions of the trans probe were prepared at 2 mM; the cis and epi probes were prepared at 1.2 mM; cholesterol and other sterols for competition were prepared at 4 mM; steroids were prepared at 5 mM. […]

[9] = system: sterol-binding proteins in HeLa cells; assay: Gel-based profiling of sterol-binding proteins in HeLa cells; assay type: cell-based, human; settings: 1-20 μM probe
Method: HeLa cells were grown at 37° C. under a humidified 5% CO2 atmosphere, in a culture medium consisting of high-glucose DMEM (HyClone) supplemented with 10% fetal bovine serum (FBS; Gemini) and penicillin, streptomycin, and glutamine (Cellgro; PSQ). For SILAC experiments, the culture medium was replaced with SILAC DMEM (Thermo) supplemented instead with 10% dialyzed FBS, PSQ, and 100 μg/ml [^13C6, ^15N4] L-arginine-HCl and [^13C6, ^15N2] L-lysine-HCl (Sigma-Aldrich). Cells were passaged at least six times in isotopically labeled media before being utilized for analysis by LC-MS/MS.
To facilitate delivery to cells, all sterols and steroids, including the sterol probes, were complexed in aqueous solution to mβCD (Sigma-Aldrich) for at least twelve hours before dilution in culture medium for labeling. The desired amount of sterol or steroid was added to a saturated aqueous mβCD (38 mM) solution to generate a concentrated stock, and agitated at room temperature overnight; solutions were filtered prior to use the following day. […]
Frozen cell pellets were thawed on ice and lysed in PBS by sonication. Protein concentrations of cell lysates were determined using the BCA protein assay on a microplate reader. […] After 1 hour, samples were mixed with SDS sample loading buffer and loaded without boiling on a 10% SDS-PAGE gel, separated, and imaged using a Hitachi FMBIO-II flatbed fluorescence scanner.

T1 sequence (P22437 27-602): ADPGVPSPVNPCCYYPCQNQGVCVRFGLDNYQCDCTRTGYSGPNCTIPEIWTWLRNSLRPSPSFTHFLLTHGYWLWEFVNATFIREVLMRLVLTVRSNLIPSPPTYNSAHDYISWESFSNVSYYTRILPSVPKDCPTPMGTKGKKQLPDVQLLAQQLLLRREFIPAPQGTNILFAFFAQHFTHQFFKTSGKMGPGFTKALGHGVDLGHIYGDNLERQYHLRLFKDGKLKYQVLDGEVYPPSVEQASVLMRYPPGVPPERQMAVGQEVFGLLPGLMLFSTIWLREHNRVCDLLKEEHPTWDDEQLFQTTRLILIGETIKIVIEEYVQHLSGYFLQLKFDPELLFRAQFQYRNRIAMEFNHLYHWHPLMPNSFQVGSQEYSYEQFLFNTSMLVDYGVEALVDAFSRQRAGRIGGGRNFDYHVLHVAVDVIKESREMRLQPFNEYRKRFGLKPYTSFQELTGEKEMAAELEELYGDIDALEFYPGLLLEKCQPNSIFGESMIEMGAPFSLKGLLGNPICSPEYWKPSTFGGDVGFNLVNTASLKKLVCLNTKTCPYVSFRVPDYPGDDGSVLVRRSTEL

competition of A-DA labeling of PTGS1 [1]: competitively blocked
Structure (SMILES): CC(C(=O)O)c1ccc(-c2ccccc2)c(F)c1 (racemic) [(±)-flurbiprofen]

Structure (SMILES): C#CCCCC1(CC/C=C\C/C=C\C/C=C\CCCC(=O)O)N=N1 [AA-DA, (5Z,8Z,11Z)-14-(3-(pent-4-yn-1-yl)-3H-diazirin-3-yl)tetradeca-5,8,11-trienoic acid]
protein labeling profile (membrane vs soluble) [2]: almost exclusive labeling of membrane proteins

Structure (SMILES): CS(=O)(=O)c1ccc(C2=C(c3ccccc3)C(=O)OC2)cc1 [rofecoxib, reference compound]
conversion of exogenous AEA to PGF2α-EA [3]: blocked
A-DA labeling of AKR1B8 [4]: reductions
SILAC ratio, A-DA competition [5]: 1.1
competition of A-DA labeling of PTGS2 [6]: disrupted
SILAC ratio, A-DA competition [7]: 1.2

Structure (SMILES): C#CCCCCOC(=O)CC[C@@H](C)[C@H]1CCC2C3CC4(N=N4)[C@H]4C[C@@H](O)CC[C@]4(C)C3CC[C@@]21C (stereo partly drawn) [trans-sterol probe, (4R)-hex-5-yn-1-yl 4-((3S,5S,10R,13R,17R)-3-hydroxy-10,13-dimethyl-1,2,3,4,5,7,8,9,10,11,12,13,14,15,16,17-hexadecahydrospiro[cyclopenta[a]phenanthrene-6,3′-diazirin]-17-yl)pentanoate]
mean labeling intensity ratio trans/epi ([8]; standard deviation 1.2): 2.1
mean labeling intensity ratio trans/cis ([8]; standard deviation=0.57): 0.9
overall protein-labeling profile by gel [9]: stronger overall protein-labeling profiles
